Laboratory results published in patent publication US8946439B2, “Amide compounds, compositions and uses thereof” (Evotec AG, priority 2008, dated 2015).
Like-named read-outs stand apart in the source and are kept apart here.

Legend:
hP2X2/3H = target: T1, hP2X2/3H (Homo sapiens, UniProt P56373+Q9UBL9); experiment: Calcium uptake assay (P2X antagonist assay), P2X2/3 heteromer; type: cell-based; settings: hP2X2/3H
T1 construct: expressed in transfected cells; host or cells: e.g. HEK293 or 1321N1
T1 sequence (Q9UBL9 1-471): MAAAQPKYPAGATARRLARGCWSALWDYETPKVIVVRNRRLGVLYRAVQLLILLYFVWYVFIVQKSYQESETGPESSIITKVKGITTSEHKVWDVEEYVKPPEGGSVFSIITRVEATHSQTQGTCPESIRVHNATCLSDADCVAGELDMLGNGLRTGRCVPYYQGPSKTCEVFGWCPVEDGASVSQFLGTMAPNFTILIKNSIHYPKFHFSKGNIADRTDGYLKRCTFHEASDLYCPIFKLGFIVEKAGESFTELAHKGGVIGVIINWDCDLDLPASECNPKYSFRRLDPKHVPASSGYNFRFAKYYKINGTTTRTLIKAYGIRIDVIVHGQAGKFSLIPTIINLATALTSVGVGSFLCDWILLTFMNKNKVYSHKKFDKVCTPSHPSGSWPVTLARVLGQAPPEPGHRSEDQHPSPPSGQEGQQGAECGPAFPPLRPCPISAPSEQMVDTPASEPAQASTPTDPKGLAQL
T1 sequence (P56373 1-397): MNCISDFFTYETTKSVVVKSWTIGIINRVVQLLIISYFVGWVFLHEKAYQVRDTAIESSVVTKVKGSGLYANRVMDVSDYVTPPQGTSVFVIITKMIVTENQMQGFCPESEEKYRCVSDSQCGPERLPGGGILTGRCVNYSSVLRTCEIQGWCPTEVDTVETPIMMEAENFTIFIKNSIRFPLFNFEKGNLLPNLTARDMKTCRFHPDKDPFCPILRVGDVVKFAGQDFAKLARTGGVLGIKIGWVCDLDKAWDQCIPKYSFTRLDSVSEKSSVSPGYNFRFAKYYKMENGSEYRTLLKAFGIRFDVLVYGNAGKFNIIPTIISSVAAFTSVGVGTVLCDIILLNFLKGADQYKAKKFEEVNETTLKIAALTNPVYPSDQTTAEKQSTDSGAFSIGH
Outline: (§1)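 Stably or transiently transfected HEK293 or 1321N1 cells; the heteromer is made by adding P2X3 to a P2X2-stable line, with heteromer function isolated pharmacologically. The peak-minus-baseline FLIPR calcium signal gives % inhibition and a 4-parameter-logistic IC50.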

hP2X3 = target: T2, hP2X3 (Homo sapiens, UniProt P56373); experiment: Calcium uptake assay (P2X antagonist assay), P2X3 homomer; type: cell-based; settings: hP2X3
T2 construct: expressed in transfected cells; host or cells: e.g. HEK293 or 1321N1
T2 sequence (P56373 1-397): T1 sequence (P56373 1-397)
Outline: as §1

[1] = Ca influx (calcium uptake assay), read-out: IC50 hP2X2/3H
[2] = Ca influx (calcium uptake assay), read-out: IC50 hP2X3
[3] = calcium uptake assay, read-out: IC50 hP2X2/3H (nM), Ca Influx
[4] = calcium uptake assay, read-out: IC50 hP2X3 (nM), Ca Influx

IC50 (hP2X2/3H; [1]) [nM]	IC50 (hP2X3; [2]) [nM]	IC50 (hP2X2/3H; [3]) [nM]	IC50 (hP2X3; [4]) [nM]	Structure (SMILES)
100 to 500	< 100	–	–	Cc1ccc(-c2cc(C(=O)NCc3ccn4ccnc4c3)cc(S(C)(=O)=O)c2)nc1 [Compound 351]
–	–	> 1000	100 to 500	Cc1ncc(CNC(=O)c2cc(C(=O)N3CCCC3)cc(-c3ccc(F)cc3F)c2)cn1 [Compound 53]
–	–	< 100	< 100	Cc1ccc(-c2cc(C(=O)N[C@H](C)c3ccc(C)nc3)cc(C(=O)N3CCCC3)c2)nc1 [Compound 173]
–	–	< 100	< 100	Cc1ccc(-c2cc(C(=O)NCc3ccc(C)nc3)cc(C(=O)N(C)Cc3ccncc3)c2)cc1 [Compound 162, N3,4′-Dimethyl-N-5-((6-methylpyridin-3-yl)methyl)-N3-(pyridin-4-ylmethyl)biphenyl-3,5-dicarboxamide]
100 to 500	< 100	–	–	Cc1ccc(-c2cc(OC3COCC3O)cc(C(=O)N[C@H](C)c3ccc(C)nc3)c2)nc1 (some centres unmarked) [Compound 347]
–	–	> 1000	> 1000	Cc1ccc(CNC(=O)c2cc(-c3ccc(C)c(C)c3)cc(S(C)(=O)=O)c2)cn1 [Compound 121]
–	–	100 to 500	100 to 500	Cc1ccc(-c2cc(C(=O)NCc3ccc(C)nc3)cc(C(=O)N3CCc4ccccc4C3)c2)cc1 [Compound 187, 4′-Methyl-N-((6-methylpyridin-3-yl)methyl)-5-(1,2,3,4-tetrahydroisoquinoline-2-carbonyl)biphenyl-3-carboxamide]
–	–	100 to 500	100 to 500	Cc1ccc(-c2cc(C(=O)NCc3ccc4c(c3)OCO4)cc(C(=O)N3CCCC3)c2)cc1 [Compound 98]
–	–	501 to 1000	< 100	Cc1ccc(-c2cc(C(=O)NCc3cnc(C)nc3)cc(C(=O)N3CCN(C)C(=O)C3)c2)cc1 [Compound 27]
–	–	< 100	100 to 500	Cc1ccc(-c2cc(C(=O)NCc3ccc(C)nc3)cc(C(=O)N3CCc4ccccc43)c2)cc1 [Compound 186]
–	–	100 to 500	< 100	Cc1ccc(-c2cc(C(=O)NCc3ccc(C(F)(F)F)nc3)cc(C(=O)N3CC[C@@H](O)C3)c2)cc1 [Compound 156]
–	–	501 to 1000	100 to 500	Cc1ccc(-c2cc(C(=O)NCc3ccc(Cl)c(S(=O)(=O)NC4CC4)c3)cc(C(=O)N3CCCC3)c2)cc1 [Compound 73, N-(4-Chloro-3-(N-cyclopropylsulfamoyl)benzyl)-4′-methyl-5-(pyrrolidine-1-carbonyl)biphenyl-3-carboxamide]
–	–	< 100	< 100	Cc1ccc(-c2cc(C(=O)NCc3ccc(C)nc3)cc(C(=O)N3CC(O)C3)c2)cc1 [Compound 132]
< 100	< 100	–	–	COCC(C)Oc1cc(C(=O)NCc2ccc(C)nc2)cc(-c2ccc(C)cc2)c1 (centres unmarked) [Compound 300]
< 100	< 100	–	–	Cc1ccc(-c2cc(Oc3ccccn3)cc(C(=O)N[C@H](C)c3cnc(C)nc3)c2)nc1 [Compound 270]
–	–	100 to 500	< 100	Cc1ccc(-c2cc(C(=O)NCc3ccc(C)nc3)cc(C(=O)N3CC[C@H](O)C3)c2)cc1 [Compound 95, (S)-5-(3-Hydroxypyrrolidine-1-carbonyl)-4′-methyl-N-((6-methylpyridin-3-yl)methyl)biphenyl-3-carboxamide]
100 to 500	< 100	–	–	COc1cc(C(=O)N[C@H](C)c2cnc(C)nc2)cc(-c2ccc(C)cn2)c1 [Compound 225, (R)-3-Methoxy-5-(5-methylpyridin-2-yl)-N-(1-(2-methylpyrimidin-5-yl)ethyl)benzamide]
–	–	< 100	< 100	CCCS(=O)(=O)c1cc(C(=O)NCc2ccn3ccnc3c2)cc(-c2ccc(C)cc2)c1 [Compound 57]
< 100	< 100	–	–	Cc1ccc(-c2cc(OCC3CCOC3)cc(C(=O)N[C@H](C)c3ccc(C)nc3)c2)nc1 (some centres unmarked) [Compound 334]
–	–	> 1000	100 to 500	Cc1ncc(CNC(=O)c2cc(C(=O)N3CCCC3)cc(-c3ccc(F)cc3)c2)cn1 [Compound 38]
501 to 1000	> 1000	–	–	Cc1ccc(-c2cc(C(=O)NCc3ccc(C)nc3)cc(C(F)(F)F)c2)cc1 [Compound 204]
< 100	< 100	–	–	Cc1ccc(-c2cc(C(=O)N[C@H](CO)c3cnc(C)nc3)cc(S(C)(=O)=O)c2)cc1 [Compound 221, (S)—N-(2-Hydroxy-1-(2-methylpyrimidin-5-yl)ethyl)-4′-methyl-5-(methylsulfonyl)biphenyl-3-carboxamide]
–	–	100 to 500	< 100	Cc1ccc(-c2cc(C(=O)NCc3ccc(C)nc3)cc(C(=O)N3CC4CN(C)CC4C3)c2)cc1 (centres unmarked) [Compound 141]

The next lines start with the compound.

Structure (SMILES)	IC50 (hP2X2/3H; [1]) [nM]	IC50 (hP2X3; [2]) [nM]	IC50 (hP2X2/3H; [3]) [nM]	IC50 (hP2X3; [4]) [nM]
Cc1ccc(-c2cc(OCC3CCOC3)cc(C(=O)N[C@H](C)c3ccc(C)nc3)c2)cc1 (some centres unmarked) [Compound 309]	< 100	100 to 500	–	–
Cc1ccc(-c2cc(C(=O)N[C@H](C)c3ccc(C)nc3)cc(C(O)c3ccccc3)c2)cc1 (stereo partly drawn) [Compound 227, 5-(Hydroxy(phenyl)methyl)-4′-methyl-N—((R)-1-(6-methylpyridin-3-yl)ethyl)biphenyl-3-carboxamide]	< 100	100 to 500	–	–
Cc1ccc(-c2cc(C(=O)N[C@@H](C)CO)cc(C(=O)N[C@@H](C)CO)c2)cc1 [Compound 5]	–	–	501 to 1000	> 1000
Cc1ccc(-c2cc(C(=O)N[C@H](C)c3ccc(C)nc3)cc(C(=O)N3CCCC3)c2)cc1 [Compound 176]	–	–	< 100	< 100
Cc1ccc(-c2cc(C(=O)N[C@H](C)c3ccc(C)nc3)cc(C(O)c3ccccn3)c2)c(C#N)c1 (some centres unmarked) [Compound 284]	< 100	< 100	–	–
CCC(O)c1cc(C(=O)N[C@H](C)c2cnc(C)nc2)cc(-c2ccc(C)cc2C#N)c1 (some centres unmarked) [Compound 396]	< 100	< 100	–	–
Cc1ccc(-c2cc(OC3COCC3O)cc(C(=O)N[C@H](C)c3cnc(C)nc3)c2)cc1 (some centres unmarked) [Compound 362]	< 100	< 100	–	–
Cc1ccc(-c2cc(Oc3nccs3)cc(C(=O)N[C@H](C)c3cnc(C)nc3)c2)c(C#N)c1 [Compound 254, (R)-2′-Cyano-4′-methyl-N-(1-(2-methylpyrimidin-5-yl)ethyl)-5-(thiazol-2-yloxy)biphenyl-3-carboxamide]	< 100	< 100	–	–
Cc1ccc(-c2cc(Oc3ccccn3)cc(C(=O)N[C@H](C)c3ccc(C)nc3)c2)c(C#N)c1 [Compound 259]	< 100	< 100	–	–
COCCOc1cc(C(=O)N[C@H](C)c2ccc(C)nc2)cc(-c2ccc(C)cc2C#N)c1 [Compound 252]	< 100	< 100	–	–
Cc1ccc(-c2cc(C(=O)N[C@H](C)c3ccc(C)nc3)cc(C(O)c3ccccn3)c2)cc1 (stereo partly drawn) [Compound 241, 5-(Hydroxy(pyridin-2-yl)methyl)-4′-methyl-N—((R)-1-(6-methylpyridin-3-yl)ethyl)biphenyl-3-carboxamide]	< 100	< 100	–	–
Cc1ccc(-c2cc(OC3COCC3O)cc(C(=O)N[C@H](C)c3ccc(C)nc3)c2)c(C#N)c1 (some centres unmarked) [Compound 337]	< 100	< 100	–	–
Cc1ccc(-c2cc(OC3CNCC3O)cc(C(=O)N[C@H](C)c3ccc(C)nc3)c2)cc1 (some centres unmarked) [Compound 327]	100 to 500	< 100	–	–
Cc1ccc(-c2cc(C(=O)N[C@H](C)c3ccc(C)nc3)cc(C(O)CO)c2)cc1 (some centres unmarked) [Compound 289]	< 100	< 100	–	–
Cc1ccc(-c2cc(C(=O)N[C@H](C)c3cnc(C)nc3)cc(C(O)CO)c2)cc1 (some centres unmarked) [Compound 361]	100 to 500	< 100	–	–
Cc1ccc(-c2cc(C(=O)NC(C)c3ccc(C)nc3)cc(C(=O)N3CCCC3)c2)cc1 (centres unmarked) [Compound 103]	–	–	< 100	< 100
COCCOc1cc(C(=O)N[C@H](C)c2ccc(C)nc2)cc(-c2ccc(C)cc2)c1 [Compound 249]	< 100	< 100	–	–
CCCS(=O)(=O)c1cc(C(=O)N[C@@H](C)CN2CCOCC2)cc(-c2ccc(C)cc2)c1 [Compound 70]	–	–	100 to 500	< 100
Cc1ccc(-c2cc(C(=O)N[C@H](C)c3cnc(C)nc3)cc(C(O)c3ccccc3)c2)c(C#N)c1 (some centres unmarked) [Compound 278]	< 100	< 100	–	–
Cc1ccc(-c2cc(CN(C)C)cc(C(=O)N[C@H](C)c3ccc(C)nc3)c2)cc1 [Compound 340, (R)-5-((Dimethylamino)methyl)-4′-methyl-N-(1-(6-methylpyridin-3-yl)ethyl)biphenyl-3-carboxamide]	100 to 500	< 100	–	–
